{"source": "paper PMC2784894", "about": "(Chemistry & biology, 2009)", "key": {"[1]": {"system": "fission yeast actin cytoskeleton", "experiment": "fission yeast actin cytoskeleton imaging"}, "mDia1(FH1FH2) [2]": {"biological_target": "T1, mDia1(FH1FH2) (Mus musculus, UniProt O08808)", "T1 sequence (O08808 552-1255 limits assumed)": "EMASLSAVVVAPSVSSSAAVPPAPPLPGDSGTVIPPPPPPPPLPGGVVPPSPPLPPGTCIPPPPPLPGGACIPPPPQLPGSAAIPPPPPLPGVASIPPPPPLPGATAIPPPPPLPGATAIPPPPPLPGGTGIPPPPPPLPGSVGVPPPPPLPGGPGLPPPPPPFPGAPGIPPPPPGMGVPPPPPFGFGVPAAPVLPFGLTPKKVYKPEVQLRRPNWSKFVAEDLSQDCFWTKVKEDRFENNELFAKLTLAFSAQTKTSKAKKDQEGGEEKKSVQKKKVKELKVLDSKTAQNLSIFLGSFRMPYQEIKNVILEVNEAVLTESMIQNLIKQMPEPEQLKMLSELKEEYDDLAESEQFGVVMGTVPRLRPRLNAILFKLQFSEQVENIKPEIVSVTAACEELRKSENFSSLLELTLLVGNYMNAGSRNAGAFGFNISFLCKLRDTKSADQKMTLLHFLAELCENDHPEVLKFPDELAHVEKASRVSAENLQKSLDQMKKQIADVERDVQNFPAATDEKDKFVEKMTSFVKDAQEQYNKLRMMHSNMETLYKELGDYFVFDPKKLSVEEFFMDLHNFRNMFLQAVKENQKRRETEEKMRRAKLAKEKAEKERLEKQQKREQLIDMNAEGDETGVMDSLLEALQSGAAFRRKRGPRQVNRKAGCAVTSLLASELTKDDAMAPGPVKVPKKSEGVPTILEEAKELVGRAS", "experiment": "TIRF microscopy of filaments assembled from formin in solution"}, "A549 cells [3]": {"system": "A549 cells", "experiment": "multi-nucleated cells and time-lapse protrusion phenotypes"}, "mDia2": {"biological_target": "mDia2 (Mus musculus, UniProt Q9Z207)", "sequence (Q9Z207 521-1171 limits assumed)": "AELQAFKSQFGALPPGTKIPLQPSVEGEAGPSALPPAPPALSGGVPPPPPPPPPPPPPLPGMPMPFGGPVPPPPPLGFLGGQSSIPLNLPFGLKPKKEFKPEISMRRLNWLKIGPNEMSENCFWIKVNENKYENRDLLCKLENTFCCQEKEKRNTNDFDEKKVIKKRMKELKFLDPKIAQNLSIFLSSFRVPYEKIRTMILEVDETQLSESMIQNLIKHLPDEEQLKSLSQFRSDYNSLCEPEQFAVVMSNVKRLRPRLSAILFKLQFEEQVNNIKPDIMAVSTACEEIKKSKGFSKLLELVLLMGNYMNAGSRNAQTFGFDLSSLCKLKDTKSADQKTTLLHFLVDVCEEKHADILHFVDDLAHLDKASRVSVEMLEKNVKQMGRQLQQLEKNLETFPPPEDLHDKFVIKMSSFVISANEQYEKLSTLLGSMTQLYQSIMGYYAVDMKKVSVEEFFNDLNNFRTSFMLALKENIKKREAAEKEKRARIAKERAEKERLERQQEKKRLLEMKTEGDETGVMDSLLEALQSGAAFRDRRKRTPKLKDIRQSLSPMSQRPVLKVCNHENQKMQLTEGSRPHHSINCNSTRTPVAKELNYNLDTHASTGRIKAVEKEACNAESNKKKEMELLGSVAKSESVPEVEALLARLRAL", "experiment": "formin nucleation: filament length of products of spontaneous assembly reactions", "details": "with SMIFH2; ~1.5 μm with mDia2 alone, ~21 μm without formin"}, "actin": {"biological_target": "actin (Homo sapiens, UniProt P68133)", "experiment": "control actin assays without formin"}, "NIH 3T3 fibroblasts [4]": {"system": "NIH 3T3 fibroblasts", "experiment": "cytokinesis defect: percentage of multi-nucleated cells", "type": "cell-based", "details": "2.5 μM SMIFH2, after 4 days; DMSO control 1.1 ± 0 .7%"}, "Cdc12": {"biological_target": "T2, Cdc12 (Schizosaccharomyces pombe, UniProt Q10059)", "T2 sequence (Q10059 882-1390 limits assumed)": "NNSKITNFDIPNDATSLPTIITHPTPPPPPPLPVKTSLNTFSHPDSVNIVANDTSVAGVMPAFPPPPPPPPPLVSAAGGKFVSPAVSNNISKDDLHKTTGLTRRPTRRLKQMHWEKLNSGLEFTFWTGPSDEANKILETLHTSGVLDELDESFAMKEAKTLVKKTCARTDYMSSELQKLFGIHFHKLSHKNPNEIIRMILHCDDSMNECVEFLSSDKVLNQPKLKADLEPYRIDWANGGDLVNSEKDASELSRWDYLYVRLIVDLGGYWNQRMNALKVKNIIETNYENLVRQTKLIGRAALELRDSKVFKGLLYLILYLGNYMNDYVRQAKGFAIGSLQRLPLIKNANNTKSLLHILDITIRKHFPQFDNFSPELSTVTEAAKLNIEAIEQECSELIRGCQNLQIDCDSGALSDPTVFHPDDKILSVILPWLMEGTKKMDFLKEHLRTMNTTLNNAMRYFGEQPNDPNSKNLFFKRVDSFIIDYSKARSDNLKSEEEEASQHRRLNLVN", "experiment": "formin nucleation: filament length of products of spontaneous assembly reactions", "details": "with SMIFH2; ~0.5 μm with Cdc12 alone, ~21 μm without formin"}, "NIH 3T3 fibroblasts [5]": {"system": "NIH 3T3 fibroblasts", "experiment": "time-lapse imaging of migration, morphology and protrusion phenotypes"}, "[6]": {"system": "Cdc12- and mDia2-associated filaments", "experiment": "elongation of filaments pre-assembled by formin"}, "NIH 3T3 fibroblasts [7]": {"system": "NIH 3T3 fibroblasts", "experiment": "immunofluorescence of filamentous actin and paxillin"}, "GST-mDia1(FH1FH2)": {"biological_target": "GST-mDia1(FH1FH2) (Mus musculus, UniProt O08808)", "sequence (O08808 552-1255 limits assumed)": "as the sequence (O08808 552-1255 limits assumed) above", "experiment": "TIRF microscopy of filaments assembled from formin immobilized on beads", "details": "for filaments per bead after washing out SMIFH2: 75 μM SMIFH2"}, "mDia1(FH1FH2) [8]": {"biological_target": "T1, mDia1(FH1FH2)", "experiment": "pyrene-actin polymerization stimulated by mDia1", "details": "saturating concentrations of SMIFH2"}, "A549 cells [9]": {"system": "A549 cells", "experiment": "cell viability", "type": "cell-based, human", "details": "read-out: IC50 (cell viability)"}, "NIH 3T3 fibroblasts [10]": {"system": "NIH 3T3 fibroblasts", "experiment": "cell viability", "type": "cell-based", "details": "within a period of 96 hours"}}, "data": [{"smiles": "C/C1=C/C(=O)O[C@@H]2C[C@@H](CC[C@H](C)/C=C\\C=C\\CC1)O[C@@](O)([C@@H]1CSC(=O)N1)C2", "note": "[LatA, Latrunculin A, reference compound]", "values": [{"measurement": "effect on filamentous actin structures (GFP-CHD)", "setting": "[1]; 25 μM, 30 minutes at 25° C", "value": "completely disassembled all filamentous actin structures"}]}, {"smiles": "O=C1NC(=S)N(c2cccc(Br)c2)C(=O)/C1=C/c1ccco1", "note": "[SMIFH2]", "values": [{"measurement": "appearance of Rlc1-GFP and Myo2-GFP at the division site", "setting": "[1]; 10 μM SMIFH2", "value": "punctate spots"}, {"measurement": "localization of type V myosin Myo52-GFP", "setting": "[1]; 10 μM SMIFH2", "value": "distributed throughout the cell"}, {"measurement": "ability to disrupt the fission yeast formin-dependent actin cytoskeleton (actin cables)", "setting": "[1]; 10 μM, 30 minutes", "value": "lost actin cables"}, {"measurement": "concentration at which actin cables were lost", "setting": "[1]; 30 minutes at 25° C", "value": 2.5, "unit": "µM"}, {"measurement": "concentration required for disassembly of contractile rings", "setting": "[1]; 30 minutes at 25° C", "value": 25, "unit": "µM"}, {"measurement": "control filaments not associated with formin", "setting": "mDia1(FH1FH2) [2]; 100 μM SMIFH2", "value": "unaffected"}, {"measurement": "barbed end elongation rate of formin-associated filaments", "setting": "mDia1(FH1FH2) [2]; 100 μM SMIFH2, 2.5 μM profilin", "value": "~ 60 sub/s"}, {"measurement": "dim formin-associated filaments, percent of the total filament population", "setting": "mDia1(FH1FH2) [2]; 100 μM SMIFH2, just over 80% without SMIFH2", "value": "~ 10%"}, {"measurement": "IC50", "setting": "mDia1(FH1FH2) [2]; read-out: half-maximal inhibition of the percent of formin-nucleated filaments", "value": "~25", "unit": "µM"}, {"measurement": "cells with protrusions stabilized by adhesion to the external matrix", "setting": "A549 cells [3]; 30 μM SMIFH2, 8 hr time-lapse", "value": 10, "unit": "%"}, {"measurement": "cells with spherical bleb-like protrusions", "setting": "A549 cells [3]; 30 μM SMIFH2, 8 hr time-lapse", "value": "~ 40%"}, {"measurement": "increase in the percentage of multi-nucleated cells", "setting": "A549 cells [3]; 30 μM SMIFH2 for four days", "value": "four-fold"}, {"measurement": "filament length", "setting": "mDia2", "value": "~ 18 μm"}, {"measurement": "barbed end depolymerization rate without formin", "setting": "actin", "value": "no effect"}, {"measurement": "spontaneous assembly of actin monomers without formin", "setting": "actin; high concentrations of SMIFH2", "value": "did not eliminate"}, {"measurement": "cells with multiple nuclei", "setting": "NIH 3T3 fibroblasts [4]", "value": "8.6 ± 2", "unit": "%"}, {"measurement": "filament length", "setting": "Cdc12", "value": "~ 21 μm"}, {"measurement": "cells protruding by means of small dynamic blebs", "setting": "NIH 3T3 fibroblasts [5]; 10 μM SMIFH2, after two hours", "value": 40, "unit": "%"}, {"measurement": "cells retaining the lamellipodial protrusive phenotype", "setting": "NIH 3T3 fibroblasts [5]; 10 μM SMIFH2, after two hours", "value": 60, "unit": "%"}, {"measurement": "migration rate", "setting": "NIH 3T3 fibroblasts [5]; 10 μM SMIFH2 for >2 hrs, compared to control cells", "value": "reduced two-fold"}, {"measurement": "cells exhibiting large blebs", "setting": "NIH 3T3 fibroblasts [5]; 30 μM SMIFH2", "value": "nearly all"}, {"measurement": "cells with constitutive, dynamic, small blebs", "setting": "NIH 3T3 fibroblasts [5]; 10–20 μM SMIFH2 for six hours", "value": 20, "unit": "%"}, {"measurement": "time scale of reversibility of SMIFH2 perfusion effects", "setting": "NIH 3T3 fibroblasts [5]; data not shown", "value": "5 to 10", "unit": "min"}, {"measurement": "cells that extended lamellipodial protrusions", "setting": "NIH 3T3 fibroblasts [5]; less than 20 μM SMIFH2 for six hours, over 90% of control cells", "value": "approximately 20%"}, {"measurement": "elongation of formin-associated filaments", "setting": "[6]", "value": "severely blocked"}, {"measurement": "spread cells with no F-actin bundles", "setting": "NIH 3T3 fibroblasts [7]; 10 μM SMIFH2 for 2 hours", "value": "approximately 5%"}, {"measurement": "cells with thin F-actin bundles", "setting": "NIH 3T3 fibroblasts [7]; 10 μM SMIFH2 for 2 hours, 20% in control", "value": 60, "unit": "%"}, {"measurement": "cells with thick F-actin bundles", "setting": "NIH 3T3 fibroblasts [7]; 10 μM SMIFH2 for 2 hours, over 80% in control", "value": 20, "unit": "%"}, {"measurement": "cells that lacked F-actin bundles", "setting": "NIH 3T3 fibroblasts [7]; 20 μM SMIFH2, 2 hr", "value": 50, "unit": "%"}, {"measurement": "elongation rate of filaments from beads", "setting": "GST-mDia1(FH1FH2); 100 μM SMIFH2, 7.5 μM profilin", "value": "~ 44 sub/s"}, {"measurement": "filaments per bead after washing out SMIFH2", "setting": "GST-mDia1(FH1FH2); beads washed five minutes before addition of actin monomers", "value": "~ 1.25 filaments per bead"}, {"measurement": "filaments per bead after washing out SMIFH2", "setting": "GST-mDia1(FH1FH2); beads washed one minute before addition of actin monomers", "value": "~ 0.5 filaments per bead"}, {"measurement": "rate of assembly at saturating concentrations", "setting": "mDia1(FH1FH2) [8]", "value": "identical to the rate without formin"}, {"measurement": "IC50", "setting": "A549 cells [9]", "value": "~75", "unit": "µM"}, {"measurement": "growth of NIH 3T3 fibroblasts", "setting": "NIH 3T3 fibroblasts [10]", "value": "dose-dependent growth inhibition"}]}]}
